Reference: ChEMBL document CHEMBL1149977, “Synthesis of 1-(2-aminopropyl)benzimidazoles, structurally related to the TIBO derivative R82150, with activity against human immunodeficiency virus” (Bioorg Med Chem Lett, 1993)

Key:
CEM-SS [1] = test: Tested for the cytotoxicity against CEM-SS cells (determined by the inhibition of [3H]-thymidine uptake); type: functional; conditions: Homo sapiens
CEM-SS [2] = test: Tested for the inhibition of HIV-1 in CEM-SS cells measured using Syncytial assay; type: functional, cell-based; conditions: Homo sapiens
[3] = molecular target: Human immunodeficiency virus type 1 reverse transcriptase (Human immunodeficiency virus 1) (UniProt Q72547); test: Tested for the inhibition of HIV-1 reverse transcriptase at a concentration of 10 ug/mL using a ribosomal RNA template
[4] = molecular target: Human immunodeficiency virus type 1 reverse transcriptase (Human immunodeficiency virus 1) (UniProt Q72547); test: Tested for the inhibition of HIV-1 reverse transcriptase at a concentration of 100 ug/mL using a ribosomal RNA template
[5] = Selectivity index was determined by the ratio of CC50 to IC50; type: functional
[6] = molecular target: Human immunodeficiency virus type 1 reverse transcriptase (Human immunodeficiency virus 1, UniProt Q72547); test: Tested for the inhibition of HIV-1 reverse transcriptase using a ribosomal RNA template

IC50 [6] [µM] | Compound | CC50 (CEM-SS [1]) [µM] | IC50 (CEM-SS [2]) [µM] | inhibition [3] [%] | inhibition [4] [%] | Selectivity index [5]
– | CC(C)=CCN1Cc2cccc3[nH]c(=S)n(c23)C[C@@H]1C | 79 | 0.026 | – | – | –
– | CC(Cn1c(S)nc2ccccc21)N(C)Cc1ccccc1 (stereo not drawn) | 79 | 20 | 13 | 31 | –
– | CC(Cn1c(S)nc2ccccc21)NCc1ccccc1 (stereo not drawn) | 82 | 4.3 | 17 | 36 | 19
– | CC(C)=CCNC(C)Cn1c(S)nc2ccccc21 (stereo not drawn) | 81 | 23 | 19 | 46 | –
– | C=CCNC(C)Cn1c(S)nc2ccccc21 (stereo not drawn) | > 100 | 28 | 4.5 | 29 | –
– | CC(C)=CCN(C)C(C)Cn1c(S)nc2ccccc21 (stereo not drawn) | > 100 | 14 | 19 | 34 | –
– | C=CCN(C)C(C)Cn1c(S)nc2ccccc21 (stereo not drawn) | > 100 | 23 | – | – | –
0.0155 | CC(C)=CCN1Cc2cc(Cl)cc3[nH]c(=S)n(c23)C[C@@H]1C | 35 | 0.055 | – | – | –
